The record followed here is US9790221B2, “Heteroaryl compounds as IRAK inhibitors and uses thereof” (Merck Patent GmbH, priority 2014, dated 2017).

pIC50: −log10 of the molar value. Where a name gives a salt, the structure may show the parent alone.

The target in assay [1] is IRAK1 (His-TEV-IRAK1 (194-712)) (Homo sapiens (Human), UniProt P51617). The experiment in a line: IRAK1 enzymatic assay. Format: biochemical. As for the experimental part:
IRAK1 is a human purified recombinant enzyme (His-TEV-IRAK1 (194-712)). In this assay, IRAK-1 hydrolyses ATP and autophosphorylates. Measurement of IRAK-1 inhibition was performed in streptavidin coated 384well FlashPlate (PerkinElmer #SMP410A).
His-TEV-IRAK-1 (15 ng/well), ATP (1 μM, [33P]ATP 0.25 μCi/well) and compounds in DMSO (range of concentrations from 20 µM to 1 nM) or controls (2% DMSO) were incubated for 3 hours at 30° C. in assay buffer: Hepes pH7.0 50 mM, Fatty acid-free BSA 0.1%, Dithiothreitol DTT 2 mM, MgCl2 10 mM, EGTA 0.5 mM, Triton-X-100 0.01%. Kinase reaction was stopped by addition of EDTA. Supernatant was discarded, plates were washed three times with 150 mM NaCl and radioactivity was then measured in a Microbeta Trilux reader.

The target in assay [2] is IRAK4 (Homo sapiens (Human), UniProt Q9NWZ3). The experiment in a line: IRAK4 enzymatic assay. Format: biochemical. As for the experimental part:
IRAK4 is a human purified recombinant enzyme ([…]. IRAK4 hydrolyses ATP, autophosphorylates and phosphorylates a Serine/Threonine generic peptidic substrate (STK: 61ST1BLC from CisBio International based in Bagnols/Cèze FR).
Measurement of IRAK-4 inhibition was performed in streptavidin coated 384well FlashPlate (PerkinElmer #SMP410A). His-TEV-IRAK4 (20 ng/well), ATP (2 μM, [^33P]ATP 0.25 µCi/well), STK1-biotin peptide (300 nM) and compounds in DMSO (range of concentrations from 20 µM to 1 nM) or controls (2% DMSO) were incubated for 3 hours at 30° C. in assay buffer: Hepes pH7.0 50 mM, Fatty acid-free BSA 0.1%, Dithiothreitol DTT 2 mM, MgCl2 10 mM, EGTA 0.5 mM, Tween-20 0.01%, MnCl2 5 mM.
Kinase reaction was stopped by addition of EDTA. Supernatant was discarded, plates were washed three times with 150 mM NaCl and radioactivity was then measured in a Microbeta Trilux reader.

IRAK4, sequence (Q9NWZ3 whole entry): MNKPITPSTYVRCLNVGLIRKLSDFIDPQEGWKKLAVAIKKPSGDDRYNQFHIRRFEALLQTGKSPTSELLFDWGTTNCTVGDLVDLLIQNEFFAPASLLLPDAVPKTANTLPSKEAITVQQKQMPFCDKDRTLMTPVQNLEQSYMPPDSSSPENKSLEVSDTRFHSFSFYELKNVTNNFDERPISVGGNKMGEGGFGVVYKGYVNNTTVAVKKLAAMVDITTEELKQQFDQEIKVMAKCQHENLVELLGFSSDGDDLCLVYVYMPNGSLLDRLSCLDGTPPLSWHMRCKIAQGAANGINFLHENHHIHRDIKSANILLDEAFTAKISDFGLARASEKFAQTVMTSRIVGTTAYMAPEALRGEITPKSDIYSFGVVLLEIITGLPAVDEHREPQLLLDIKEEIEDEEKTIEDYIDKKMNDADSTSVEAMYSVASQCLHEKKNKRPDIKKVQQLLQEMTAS
IRAK1 (His-TEV-IRAK1 (194-712)), sequence (P51617 194-712): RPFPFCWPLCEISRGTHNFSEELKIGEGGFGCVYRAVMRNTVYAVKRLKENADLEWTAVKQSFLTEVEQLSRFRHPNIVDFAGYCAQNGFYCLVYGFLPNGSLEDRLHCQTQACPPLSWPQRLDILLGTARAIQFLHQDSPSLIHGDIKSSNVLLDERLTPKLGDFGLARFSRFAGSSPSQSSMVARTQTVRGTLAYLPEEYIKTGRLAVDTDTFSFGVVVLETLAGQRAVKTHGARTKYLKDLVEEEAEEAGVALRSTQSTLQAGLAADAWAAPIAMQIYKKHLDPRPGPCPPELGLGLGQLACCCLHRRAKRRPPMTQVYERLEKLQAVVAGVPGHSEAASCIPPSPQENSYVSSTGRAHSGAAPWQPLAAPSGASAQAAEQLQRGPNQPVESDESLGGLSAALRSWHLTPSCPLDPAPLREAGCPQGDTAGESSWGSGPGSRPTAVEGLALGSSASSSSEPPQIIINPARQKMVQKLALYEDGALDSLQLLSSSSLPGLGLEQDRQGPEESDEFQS

For the compound `Cn1cc(-c2cccc(-c3ncc(-c4ccn(C)n4)c(N[C@H]4CCC[C@@H]4O)n3)c2)cn1` (racemic) [Example 95], the pIC50 (usually the negative decadic logarithm of the IC50, by convention in mol/L) in assay [1] is less than 5.30; in assay [2], greater than 7.00.

As for `Cn1cc(-c2cccc(-c3ncc(-c4ccn(C)n4)c(NC[C@H]4CCNC[C@H]4O)n3)c2)cn1` (racemic) [Example 116], the negative-log IC50 (pIC50) in assay [1] is less than 5.30; in assay [2], 6.00 to 7.00.

As for `Cn1cc(-c2cccc(-c3ncc(-c4cnn(C)c4)c(NC[C@H]4CCNC[C@H]4O)n3)c2)cn1` (racemic) [Example 126], the pIC50 is less than 5.30 in assay [1] and 6.00 to 7.00 in assay [2].

With `Cn1cc(-c2cccc(-c3ncc(-c4cnn(C)c4)c(NC[C@H]4CC[C@@H](O)C4)n3)c2)cn1` (racemic) [Example 164], the values for the pIC50 in assay [1] and in assay [2] were 5.30 to 6.00 and greater than 7.00, respectively.

Regarding `Cn1cc(-c2cccc(-c3ncc(-c4cnn(C)c4)c(NC[C@H]4CC[C@H](O)C4)n3)c2)cn1` (racemic) [Example 165], the pIC50 in assay [1] was 6.00 to 7.00; in assay [2], greater than 7.00.

As to `Cn1cc(-c2cccc(-c3ncc(-c4cnn(C)c4)c(NCC4CCOC4)n3)c2)cn1` (racemic) [Example 166], the pIC50 in assay [1] was 6.00 to 7.00; in assay [2], greater than 7.00.

Consider `Cn1cc(-c2cccc(-c3ncc(-c4cnn(C)c4)c(N[C@@H]4CC[C@H](NS(C)(=O)=O)C4)n3)c2)cn1` (racemic) [Example 176], for which the negative logarithm of the IC50 (pIC50) in assay [1] was 5.30 to 6.00; in assay [2], greater than 7.00.

`CC(=O)N[C@@H]1CCC[C@@H]1CNc1nc(-c2cccc(-c3cnn(C)c3)c2)ncc1-c1cnn(C)c1` (relative stereo) [Example 206, N-[(Cis)-2-({5-(1-Methyl-1H-pyrazol-4-yl)-2-[3-(1-methyl-1H-pyrazol-4-yl)-phenyl]-pyrimidin-4-ylamino}-methyl)-cyclopentyl]-acetamide]: the negative logarithm of the IC50 (pIC50) in assay [1] was less than 5.30; in assay [2], 6.00 to 7.00.

Turning to `Cn1cc(-c2cccc(-c3ccc(-c4cnn(C5CCNCC5)c4)cn3)n2)cn1` [Example 2, 6′-(1-Methyl-1H-pyrazol-4-yl)-5-(1-piperidin-4-yl-1H-pyrazol-4-yl)-[2,2′]bipyridinyl], the figures for the pIC50 in assay [1] and in assay [2] were 5.30 to 6.00 and 6.00 to 7.00, respectively.

Compound `Cn1cc(-c2cccc(-c3ncc(-c4cnn(C)c4)c(NCC4CCCN(C(=O)OC(C)(C)C)C4)n3)c2)cn1` (stereo not drawn) [Example 3, 3-({5-(1-Methyl-1H-pyrazol-4-yl)-2-[3-(1-methyl-1H-pyrazol-4-yl)-phenyl]-pyrimidin-4-ylamino}-methyl)-piperidine-1-carboxylic Acid Tert-Butyl Ester] showed a pIC50 in assay [1] of 5.30 to 6.00.

Take `Cn1cc(-c2cccc(-c3ncc(-c4cnn(C)c4)c(NCC4CCCNC4)n3)c2)cn1` (stereo not drawn) [Example 4, {5-(1-Methyl-1H-pyrazol-4-yl)-2-[3-(1-methyl-1H-pyrazol-4-yl)-phenyl]-pyrimidin-4-yl}-piperidin-3-ylmethyl-amine Hydrochloride]: the pIC50 in assay [1] and in assay [2] was 5.30 to 6.00 each time.

`Cn1cc(-c2cccc(-c3ncc(-c4cnn(C)c4)c(N4CCCC(CNC(=O)OC(C)(C)C)C4)n3)c2)cn1` (stereo not drawn) [Example 5, (1-{5-(1-Methyl-1H-pyrazol-4-yl)-2-[3-(1-methyl-1H-pyrazol-4-yl)-phenyl]-pyrimidin-4-yl}-piperidin-3-ylmethyl)-carbamic Acid Tert-Butyl Ester]: the results for the pIC50 in assay [1] and in assay [2] were 5.30 to 6.00 and less than 5.30, respectively.

Turning to `Cn1cc(-c2cccc(-c3ncc(-c4cnn(C)c4)c(N4CCCC(CN)C4)n3)c2)cn1` (stereo not drawn) [Example 6, C-(1-{5-(1-Methyl-1H-pyrazol-4-yl)-2-[3-(1-methyl-1H-pyrazol-4-yl)-phenyl]-pyrimidin-4-yl}-piperidin-3-yl)-methylamine Hydrochoride], the pIC50 in assay [1] is less than 5.30; in assay [2] it was 5.30 to 6.00.

As to `Cn1cc(-c2cccc(-c3ncc(-c4ccn(C)n4)c(OCC4CCCCO4)n3)c2)cn1` (stereo not drawn) [Example 8, 5-(1-Methyl-1H-pyrazol-3-yl)-2-[3-(1-methyl-1H-pyrazol-4-yl)-phenyl]-4-(tetrahydro-pyran-2-ylmethoxy)-pyrimidine], the figures for the pIC50 in assay [1] and in assay [2] were less than 5.30 and 5.30 to 6.00, respectively.

With `Cn1cc(-c2cccc(-c3ncc(-c4ccn(C)n4)c(NCC4CCNCC4)n3)c2)cn1` [Example 12, {5-(1-Methyl-1H-pyrazol-3-yl)-2-[3-(1-methyl-1H-pyrazol-4-yl)-phenyl]-pyrimidin-4-yl}-piperidin-4-ylmethyl-amine], the pIC50 in assay [1] and in assay [2] was less than 5.30 in each case.

As for `Cn1cc(-c2cccc(-c3ncc(-c4cnn(C)c4)c(NC4CCN(S(C)(=O)=O)CC4)n3)c2)cn1` [Example 14, (1-Methanesulfonyl-piperidin-4-yl)-{5-(1-methyl-1H-pyrazol-4-yl)-2-[3-(1-methyl-1H-pyrazol-4-yl)-phenyl]-pyrimidin-4-yl}-amine], the pIC50 in assay [1] and in assay [2] was greater than 7.00 each time.

Turning to `Cn1cc(-c2cccc(-c3cc(C(F)(F)F)c(-c4cnn(C5CCOCC5)c4)cn3)c2)cn1` [Example 23, 2-[3-(1-Methyl-1H-pyrazol-4-yl)-phenyl]-5-[1-(tetrahydro-pyran-4-yl)-1H-pyrazol-4-yl]-4-trifluoromethyl-pyridine], the pIC50 in assay [1] is less than 5.30; in assay [2], 5.30 to 6.00.

As to `Cc1cc(-c2cccc(-c3cnn(C)c3)c2)ncc1-c1cnn(C2CCOCC2)c1` [Example 24, 4-Methyl-2-[3-(1-methyl-1H-pyrazol-4-yl)-phenyl]-5-[1-(tetrahydro-pyran-4-yl)-1H-pyrazol-4-yl]-pyridine], the pIC50 in assay [1] is less than 5.30; in assay [2] it was 5.30 to 6.00.

Regarding `Cn1cc(-c2cccc(-c3ncc(-c4cnn(C)c4)c(NCC(N)=O)n3)c2)cn1` [Example 25, 2-{5-(1-Methyl-1H-pyrazol-4-yl)-2-[3-(1-methyl-1H-pyrazol-4-yl)-phenyl]-pyrimidin-4-ylamino}-acetamide formate], the pIC50 in assay [1] is less than 5.30; in assay [2], 5.30 to 6.00.

As to `Cn1cc(-c2cccc(-c3ncc(-c4cnn(C)c4)c(NCC(=O)O)n3)c2)cn1` [Example 26, {5-(1-Methyl-1H-pyrazol-4-yl)-2-[3-(1-methyl-1H-pyrazol-4-yl)-phenyl]-pyrimidin-4-ylamino}-acetic Acid Formate], the pIC50 in assay [1] and in assay [2] was less than 5.30 throughout.

As to `Cn1cc(-c2cccc(-c3ncc(-c4ccn(C)n4)c(NC4CCC4)n3)c2)cn1` [Example 27, Cyclobutyl-{5-(1-methyl-1H-pyrazol-3-yl)-2-[3-(1-methyl-1H-pyrazol-4-yl)-phenyl]-pyrimidin-4-yl}-amine], the pIC50 in assay [1] was 5.30 to 6.00; in assay [2], 6.00 to 7.00.

Regarding `Cn1cc(-c2cccc(-c3ncc(-c4ccn(C)n4)c(NC4CC4)n3)c2)cn1` [Example 29], the pIC50 in assay [1] is 5.30 to 6.00; in assay [2], 6.00 to 7.00.

`Cn1cc(-c2cccc(-c3ncc(-c4cnn(C)c4)c(NC4CC4)n3)c2)cn1` [Example 30]: the pIC50 in assay [1] and in assay [2] was 6.00 to 7.00 each time.

As to `Cn1cc(-c2cccc(-c3ncc(-c4cnn(C)c4)c(NC4CCC4)n3)c2)cn1` [Example 31], the pIC50 in assay [1] and in assay [2] was 6.00 to 7.00 throughout.

With `Cn1cc(-c2cccc(-c3ncc(-c4ccn(C)n4)c(NC4CCCC4)n3)c2)cn1` [Example 33], the pIC50 in assay [1] and in assay [2] was 5.30 to 6.00 throughout.

As for `Cn1cc(-c2cccc(-c3ncc(-c4cnn(C)c4)c(NCCN)n3)c2)cn1` [Example 34], the pIC50 in assay [1] was less than 5.30; in assay [2], 5.30 to 6.00.
